Tests used:
[1] = test system: Dunkin Hartley guinea pigs; assay: Monoiodoacetate (MIA) In Vivo Model, incapacitance testing; design: species or system guinea pig; conditions: for Mean % Reduction of Pain Compared to Vehicle / Mean Difference in Hind Paw Weight Bearing (Saline knee-MIA knee): four hours post-dose; for Mean Difference in Hind Paw Weight Bearing (Saline knee-MIA knee): 9 days after MIA, Mean ± SEM, n=6; for pain versus vehicle (statistical comparison): Example 1 both doses (10 and 50 mg/kg), diclofenac 30 mg/kg, p<0.05 by Dunnett's test
Description: Male Dunkin Hartley guinea pigs weighing approximately 200-250 grams at the time of MIA injection are used to measure pain in the MIA model. The guinea pigs are group housed in a child's wading pool and maintained in a constant temperature and on a 12 hour light/12 hour dark cycle. On the day before study, the guinea pigs are moved to standard caging with 2 animals per cage. Animals have free access to food and water at all times except during data collection. All experiments are carried out according to protocols approved by the Eli Lilly Institutional Animal Care and Use Committees.
In the standard MIA model the right knees of each guinea pig are injected with MIA (0.3 mg) in saline ([…]) and the left knees with saline (50 μl). Pain is measured at 9 days after MIA injection using incapacitance testing. Incapacitance testing measures the difference in hind paw weight bearing between the MIA and saline injected knees, and each value represents the average of 3 separate measurements each measured over 1 second.
For this study, guinea pigs, are dosed with either vehicle (10% Cremophor® EL (CAS 61791-12-6) in saline) or Example 1 (10 or 50 mg/kg). A fourth group of guinea pigs are also dosed with the nonsteroidal anti-inflammatory drug diclofenac (vehicle saline, 30 mg/kg), which acts as a positive control for the study, as it has previously shown efficacy in the model. All dosing is subcutaneous at a dose volume of 5 ml/kg and group size is n=6. Dose group is randomly assigned to each animal and dosing is staggered by 10 minutes for each guinea pig. Four hours post-dose, pain is measured using incapacitance testing. Results are reported in Table 13 as the mean difference in weight bearing between saline and MIA injected knees and statistical comparisons are made between vehicle treated and compound treated animals to assess the effect of the compound of Example 1 on knee pain in the model.
Data is evaluated by one way analysis of variance; p<0.05 by Dunnett's test for comparison to vehicle and a Bonferroni adjustment is used for comparison between groups.

[2] = molecular target: T1, Human mPGES-1 (Homo sapiens, UniProt O14684); assay: Human mPGES-1 Enzyme Inhibition Assay; format: biochemical; conditions: microsomes from 293E cells, 1.69 μM PGH2; mean±standard deviation; n=10/22
T1 construct: host or cells: 293E cells (transient expression from pcDNA3.1); microsomes
T1 sequence (O14684 1-152): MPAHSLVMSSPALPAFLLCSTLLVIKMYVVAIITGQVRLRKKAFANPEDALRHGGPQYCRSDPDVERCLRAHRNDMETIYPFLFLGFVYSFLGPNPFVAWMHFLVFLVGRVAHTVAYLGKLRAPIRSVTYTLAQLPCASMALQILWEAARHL
Description: Human mPGES-1 (Invitrogen™ (Cat #97002RG, clone ID 6374722)) is subcloned into pcDNA3.1 and transiently expressed in 293E cells. […] Briefly, pellets are brought up in homogenization buffer (15 mM Tris-HCl, pH 8.0; 0.25 M sucrose; 0.1 mM EDTA; 1 mM glutathione) and sonicated 5×30 seconds on ice. Homogenate is centrifuged at 5000×g for 10 minutes at 4° C. The supernatant fraction is decanted; loaded into Beckman Quick-Seal® tubes; and centrifuged at 150,000×g for 90 minutes at 4° C. The supernatant fraction is discarded by decantation; and the pellets are resuspended in assay buffer (10 mM sodium phosphate (pH 7.0), 10% glycerol, and 2.5 mM glutathione. Complete Protease Inhibitor Cocktail (Roche)). Protein concentration is determined using the Pierce Coomassie Plus™ reagent.
For the enzyme assay, the microsomes are diluted into assay buffer and 7 μL/well is added to 384 well plates. Compound dilution plates (Nunc Cat #249944) are generated on a Multimek™, and 1 μL/well is added to the assay plates. Prostaglandin H2 (PGH2) is diluted into assay buffer immediately before use and 7 μL/well is added. Final concentrations are 4.4 μg/mL microsomes and 1.69 μM PGH2. After a 2.5 minute incubation at room temperature, 2.5 μL/well of 1 mg/mL of snCl2 in 0.5 N HCl is added to stop the reaction. […]

[3] = test system: PGE2 formation; assay: Cell Based Assay for Measuring Eicosanoid Selectivity (A549, rhIL-1β induced PGE2); conditions: Homo sapiens; A549 cells, rhIL-1β 0.1-0.2 ng/mL, approx. 18 hours; mean±standard deviation; n=4; read-out: IC50 inhibition of PGE2 formation
Description: (§1) Human epithelial lung carcinoma cell line A549 is obtained from ATCC (CCL-185) and is maintained in Kaighn's F12 (“F12K”)+10% fetal bovine serum, (FBS) (plating medium), and 5% CO2. The cells are passaged at 1:3 twice a week.
(§2) For this assay, cells are released from flasks by washing once with phosphate buffered saline (PBS), then once with Trypsin/EDTA. After 3-5 minutes at 37° C., the cells are suspended in 10 mL of plating medium, and centrifuged at 2,000 rpm at 25° C. for 5 minutes. The supernatant is aspirated, and the cell pellet is resuspended in 10 mL F12K. Cell number is determined by counting an aliquot of cells, which has been diluted in PBS and Trypan blue on a hemocytometer. Cells are plated at 40,000/well in 96 well Falcon plates 24 hours prior to treatment. […] The plates are incubated at room temperature for 30-45 minutes, and then read on a plate reader at A490 to determine viability. […]
(§3) The conditioned medium is assayed for levels of PGE2 and PGI2 by specific enzyme immune-assays (ETAs) according to the manufacturer's protocols (Cayman) Briefly, conditioned medium (1 μL) is added to each well of a 96 well plate coated with a capture antibody and containing ETA buffer (49 μL) supplied by the manufacturer. […] After approximately 45 minutes at room temperature on an orbital shaker at 100 rpm, the plates are read at A412 on a plate reader. […]

[4] = test system: synthesis of other prostanoids; assay: Cell Based Assay for Measuring Eicosanoid Selectivity (A549, other prostanoids, PGI2); design: species or system human; conditions: A549 cells, rhIL-1β; PGI2 by enzyme immunoassay
Description: as §1, §2, §3

[5] = test system: PGF2α and TXB2 production; assay: Human Whole Blood Assay (LPS, PGF2α and TXB2); format: cell-based; conditions: LPS 100 μg/mL, 20-24 hours
Description: Blood is collected from normal volunteer donors into sodium heparin vacutainer tubes. Donors have not taken NSAIDs, aspirin, Celebrex, or glucocorticoids within two weeks of the donation. All tubes/donor are pooled into 250 mL Corning conical centrifuge tubes and 436.5 μL/well is distributed into deep well polypropylene plates. Compounds are diluted in DMSO to 100× final and 4.5 μL/well in duplicate or triplicate is added to give 7 point curves. The blood is pretreated at 37° C., 5% CO2, in a humidified atmosphere, loosely covered with a silicone cap mat, for 30 minutes after which 9 μL/well of a solution of 5 mg/mL of lipopolysaccharide (LPS) (Sigma 0111:B4) in 1 mg/mL bovine serum albumin (BSA)/PBS is added to give a final LPS concentration of 100 μg/mL. The plates are incubated for 20-24 hours, loosely covered, at 37° C., 5% CO2, in a humidified atmosphere, on an orbital shaker at approximately 100 rpm. The plates are tightly sealed with silicone cap mats and are chilled on ice for approximately 1 hour. Then the plates are centrifuged at 1800×g, 10 minutes, 4° C., in an Eppendorf 5810R centrifuge. […] One hundred microliters is quantitatively transferred to Costar cluster tubes blocks and 400 μL/well of the methanol stop reagent and internal standards, d-4PGE2, d-4PGF2α, and d-4TX2β are added. […] The products were analyzed by LC/MS/MS.

Row | IC50 [2] | IC50 [3] | Structure (SMILES) | Mean % Reduction of Pain Compared to Vehicle ([1]; 30 mg/kg subcutaneous) | Mean Difference in Hind Paw Weight Bearing (Saline knee-MIA knee) ([1]; 30 mg/kg subcutaneous) | pain versus vehicle (statistical comparison) [1] | effect on synthesis of other prostanoids [4] | effect on PGF2α production [5] | effect on TXB2 production [5] | Mean % Reduction of Pain Compared to Vehicle ([1]; 10 mg/kg subcutaneous) | Mean Difference in Hind Paw Weight Bearing (Saline knee-MIA knee) ([1]; 10 mg/kg subcutaneous) | Mean % Reduction of Pain Compared to Vehicle ([1]; 50 mg/kg subcutaneous) | Mean Difference in Hind Paw Weight Bearing (Saline knee-MIA knee) ([1]; 50 mg/kg subcutaneous) | 50 mg/kg group compared with the 10 mg/kg group and the diclofenac group ([1]; 50 mg/kg, Bonferroni adjustment for comparison between groups)
1 | – | – | O=C(O)Cc1ccccc1Nc1c(Cl)cccc1Cl [Diclofenac, diclofenac, reference compound] | 22% | 34.65 ± 1.14 g | significantly reduce pain | – | – | – | – | – | – | – | –
2 | 0.944 ± 0.59 nM | 12.1 ± 6.1 nM | Cc1nc(NC(=O)c2cc(CNC(=O)C(C)C)cnc2C(F)F)[nH]c1-c1ccc(C(F)(F)F)cc1 [Example 1, 2-(Difluoromethyl)-5-{[(2-methylpropanoyl)amino]methyl}-N-{4-methyl-5-[4-(trifluoromethyl)phenyl]-1H-imidazol-2-yl}pyridine-3-carboxamide] | – | – | significantly reduce pain | without affecting the synthesis of other prostanoids | without inhibiting | without inhibiting | 15% | 37.53 ± 0.87 g | 36% | 28.44 ± 0.66 g | significantly different
